# Reference: patent US20090176714A1, “METHOD OF REDUCING THE EFFECTS OF ABeta AND COMPOSITIONS THEREFORE” (priority 2004, published 2009)
# System: human cortical slices
# Assay: Aβ-induced cell death (EthD-1/calcein AM) in human organotypic cortical cultures
# Format: cell-based
# Source text: Four patients with intractable epilepsy who had elected to undergo a temporal lobe resection were recruited for this study. […] However, the overlying temporal cortex is normal. The age of the subjects ranged from 20 to 49. Brain tissue was obtained with informed consent from all patients.
# Brain tissue was removed in large, intact pieces by electrocautery. Tissue obtained from the temporal cortex was approximately 3 cm×2 cm×1.5-2 cm. Immediately following removal, the tissue was placed in ice-cold Neuregen-I media (Brainbits, Springfield, Ill.), a CO2 independent transport and holding medium, and transported to a tissue culture laboratory. Meninges were removed before cutting the tissue with a scalpel to produce blocks about 0.5-1 cm^3 such that each gyrus was kept as intact as possible and the cortical layers were preserved. As described previously, incisions were made perpendicular to the longitudinal axis of the gyrus and along the white matter (Verwer et al., Exp. Gerontol., 38:167-172 (2003)). A vibratome was used to cut 400 μm thick slices at a plane perpendicular to the longitudinal axis of the gyrus. Thus, all cortical layers and a small amount of white matter were included in a slice. Alternately, small tissue pieces, which were usually obtained from the hippocampus, were cut at 400 μm using a McIlwain tissue chopper. No more than 2 slices were placed on a filter insert with a 30 mm diameter and a 0.4 μm filter pore size (Millipore, Billerica, Mass.) held in 6-well culture plates. For the first 12 hours, slices were kept in 1-1.2 mL Neurobasal media with B-27 supplement, 0.5 mM glutamine, and 1% penicillin/streptomycin (Invitrogen). Subsequently, the media was changed every 2 days using 1 mL of media without antibiotics. Organotypic cultures were maintained in a humidified incubator at 37° C. in 5% O2, 5% CO2, and 90% N for 4 to 28 days.
# Cell death and viability was determined on live slices using the fluorescent probes from Molecular Probes' Live/Dead Kit. After a 40 minute incubation in calcein AM (1:400) and ethidium homodimer (1:1000) in phosphate buffered saline, slices were visualized at 200× magnification with an inverted Nikon Diaphot 200 microscope using the Bio-Rad MRC-1024 Laser Scanning Confocal system (Hercules, Calif.). Random images were captured at the emission spectrum of each probe, and Scion Image software (Frederick, Md.) was used to quantify the number of live and dead cells. At least three areas were imaged and used to determine the percent death for each slice. The percent death was calculated as the number of EthD-1 positive cells divided by the total number of EthD-1 and calcein AM positive cells.
# β-amyloid1-42 and reverse Aβ (Aβ42-1) were obtained from BACHEM (Torrance, Calif.). These peptides were dissolved in 0.1% NH3OH at 222 μM. For treatments, Aβ or reverse Aβ was aggregated at 50 μM in Neurobasal media with B-27 supplement and 0.5 mM glutamine at 37° C. for 24 hours. Then, the slice culture media was removed, and the slices were treated with 1 mL of 25 μM or 50 μM Aβ, reverse Aβ, or vehicle for 24 hour. Human TTR (Calbiochem) was added to slices together with the Aβ treatment at final concentrations of 0.03, 0.3, and 3 μM TTR. sAPPα was obtained from Sigma (St. Louis, Mo.). Unless otherwise stated, all sAPPα treatments were performed at 1 nM 48 hours prior to the addition of Aβ. The 10 amino acid fragment of the carboxyl-terminal region of sAPPα (592-601 of APP695; SEVKMDAEFR was added according to the same protocol for sAPPα. Because a variable amount of tissue was obtained from each patient, not all treatments were performed on all patients.
substance,measurement,setting,value
DAEF [peptide of 4 residues within the 10 residue peptide (residues 597-600)],Protection against Aβ toxicity (percent death),"50 μM Aβ, sample from one subject, FIG. 6A",protected against 50 μM Aβ toxicity
SEVKMDAEFR,Protection against Aβ-induced death (percent death),"1 nM 48 hours prior to 50 μM Aβ, four subjects, FIG. 6A",significant protection
β-amyloid1-42 [Aβ],Number of cells that have lost membrane integrity,50 μM Aβ,dramatic increase
same,Percent death,"50 μM Aβ vs 50 μM reverse Aβ, FIG. 6A",significantly increased
